{"source": "patent US8895055B2", "about": "“Telodendrimer nanodiscs without apolipoprotein” (The Regents of the University of California, priority 2011, dated 2014)", "origin": "cited, not measured here", "data": [{"smiles": "C[C@@H]1[C@H](O)[C@@H](C)/C=C/C=C/C=C/C=C/C=C/C=C/C=C/[C@H](O[C@@H]2O[C@H](C)[C@@H](O)[C@H](N)[C@@H]2O)C[C@@H]2O[C@](O)(C[C@@H](O)C[C@@H](O)[C@H](O)CC[C@@H](O)C[C@@H](O)CC(=O)O[C@H]1C)C[C@H](O)[C@H]2C(=O)O", "note": "[Amphotericin B]", "values": [{"measurement": "solubility in water", "result": "poorly soluble in water"}]}]}
